# Results reported in article PMC4579064 (Toxicology and applied pharmacology, 2015).
# Tests used:
# [1] = target: T1, CYP1B1 (Homo sapiens, UniProt Q16678); experiment: recombinant CYP activity with fluorogenic substrate; type: biochemical
# T1 sequence (Q16678 1-543): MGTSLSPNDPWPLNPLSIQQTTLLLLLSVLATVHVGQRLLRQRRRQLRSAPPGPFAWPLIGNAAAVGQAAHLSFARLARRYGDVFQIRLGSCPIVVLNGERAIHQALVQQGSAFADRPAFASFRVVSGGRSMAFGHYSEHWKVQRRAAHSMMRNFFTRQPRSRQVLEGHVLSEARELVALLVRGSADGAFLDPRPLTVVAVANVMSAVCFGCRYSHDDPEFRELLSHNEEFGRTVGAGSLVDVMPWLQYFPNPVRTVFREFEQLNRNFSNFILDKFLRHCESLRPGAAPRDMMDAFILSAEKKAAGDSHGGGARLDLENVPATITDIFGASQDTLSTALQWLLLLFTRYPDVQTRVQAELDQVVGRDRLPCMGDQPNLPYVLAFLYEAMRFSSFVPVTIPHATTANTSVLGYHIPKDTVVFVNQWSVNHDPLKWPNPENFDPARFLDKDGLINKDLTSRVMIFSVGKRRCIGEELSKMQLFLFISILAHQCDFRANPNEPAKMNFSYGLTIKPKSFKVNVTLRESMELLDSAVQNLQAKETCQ
# T1 sequence (P16435 2-677 partner): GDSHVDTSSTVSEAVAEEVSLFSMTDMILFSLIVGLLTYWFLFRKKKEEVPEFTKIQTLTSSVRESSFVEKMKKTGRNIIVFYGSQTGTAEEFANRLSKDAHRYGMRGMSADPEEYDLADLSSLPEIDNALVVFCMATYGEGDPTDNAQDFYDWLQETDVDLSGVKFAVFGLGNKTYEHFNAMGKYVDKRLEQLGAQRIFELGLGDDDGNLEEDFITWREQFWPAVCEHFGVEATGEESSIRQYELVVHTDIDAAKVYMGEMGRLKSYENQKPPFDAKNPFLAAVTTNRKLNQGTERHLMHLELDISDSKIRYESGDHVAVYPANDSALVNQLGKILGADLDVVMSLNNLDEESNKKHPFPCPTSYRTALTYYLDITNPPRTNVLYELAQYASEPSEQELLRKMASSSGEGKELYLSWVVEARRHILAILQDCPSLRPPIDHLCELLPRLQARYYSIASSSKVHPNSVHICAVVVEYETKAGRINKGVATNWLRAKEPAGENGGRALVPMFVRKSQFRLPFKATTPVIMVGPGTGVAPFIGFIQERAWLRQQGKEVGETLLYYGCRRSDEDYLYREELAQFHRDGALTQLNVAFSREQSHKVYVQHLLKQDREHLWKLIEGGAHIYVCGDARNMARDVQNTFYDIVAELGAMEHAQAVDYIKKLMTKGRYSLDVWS
# [2] = target: T2, CYP2B6 (Homo sapiens, UniProt P20813); experiment: as above; type: biochemical
# T2 sequence (P20813 1-491): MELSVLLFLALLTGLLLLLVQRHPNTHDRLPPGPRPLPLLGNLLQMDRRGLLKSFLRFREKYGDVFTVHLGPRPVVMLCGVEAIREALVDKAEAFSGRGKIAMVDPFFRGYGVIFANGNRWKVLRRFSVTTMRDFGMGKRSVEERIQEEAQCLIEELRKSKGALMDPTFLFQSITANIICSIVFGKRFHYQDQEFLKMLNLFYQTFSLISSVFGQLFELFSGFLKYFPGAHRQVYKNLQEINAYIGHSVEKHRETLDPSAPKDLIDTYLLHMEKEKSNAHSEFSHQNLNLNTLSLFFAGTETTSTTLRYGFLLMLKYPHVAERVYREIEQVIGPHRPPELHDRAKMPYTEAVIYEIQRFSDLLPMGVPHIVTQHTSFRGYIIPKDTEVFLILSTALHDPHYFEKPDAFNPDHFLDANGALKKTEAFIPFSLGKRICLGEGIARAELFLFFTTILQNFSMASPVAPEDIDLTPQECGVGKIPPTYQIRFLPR
# [3] = target: CYP2C9 (Homo sapiens, UniProt P11712); experiment: as above; type: biochemical
# Chain of CYP2C9 (P11712 whole entry, one chain of several): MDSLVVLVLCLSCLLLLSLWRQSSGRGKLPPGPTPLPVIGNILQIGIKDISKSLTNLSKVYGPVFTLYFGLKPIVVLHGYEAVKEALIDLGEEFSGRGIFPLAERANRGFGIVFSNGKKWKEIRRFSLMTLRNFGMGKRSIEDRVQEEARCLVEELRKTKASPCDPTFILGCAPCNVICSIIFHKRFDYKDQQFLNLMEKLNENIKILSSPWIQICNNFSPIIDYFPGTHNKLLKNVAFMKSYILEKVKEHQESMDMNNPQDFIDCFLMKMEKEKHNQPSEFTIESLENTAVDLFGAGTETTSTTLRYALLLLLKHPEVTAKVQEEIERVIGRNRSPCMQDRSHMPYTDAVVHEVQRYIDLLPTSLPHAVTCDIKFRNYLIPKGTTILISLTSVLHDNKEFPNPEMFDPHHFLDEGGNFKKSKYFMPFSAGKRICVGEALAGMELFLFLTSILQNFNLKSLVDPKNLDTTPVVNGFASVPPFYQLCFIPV
# [4] = target: CYP2E1 (Homo sapiens, UniProt P05181); experiment: as above; type: biochemical
# Chain of CYP2E1 (P05181 whole entry, one chain of several): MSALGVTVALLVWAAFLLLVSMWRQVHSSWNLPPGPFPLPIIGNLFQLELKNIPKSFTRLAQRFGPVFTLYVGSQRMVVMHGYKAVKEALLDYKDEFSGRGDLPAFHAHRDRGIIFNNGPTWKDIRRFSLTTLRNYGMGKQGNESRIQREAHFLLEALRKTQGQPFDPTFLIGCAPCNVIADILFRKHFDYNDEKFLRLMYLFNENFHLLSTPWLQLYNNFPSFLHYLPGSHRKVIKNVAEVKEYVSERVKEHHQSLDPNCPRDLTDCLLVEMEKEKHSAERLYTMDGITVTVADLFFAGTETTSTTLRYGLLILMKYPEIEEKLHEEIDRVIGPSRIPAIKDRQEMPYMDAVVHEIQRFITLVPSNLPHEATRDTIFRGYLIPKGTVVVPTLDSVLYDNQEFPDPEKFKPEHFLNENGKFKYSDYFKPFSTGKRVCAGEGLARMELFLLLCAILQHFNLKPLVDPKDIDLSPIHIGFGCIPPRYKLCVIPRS
# [5] = target: CYP3A4 (Homo sapiens, UniProt P08684)
# Chain of CYP3A4 (P08684 2-503 limits assumed): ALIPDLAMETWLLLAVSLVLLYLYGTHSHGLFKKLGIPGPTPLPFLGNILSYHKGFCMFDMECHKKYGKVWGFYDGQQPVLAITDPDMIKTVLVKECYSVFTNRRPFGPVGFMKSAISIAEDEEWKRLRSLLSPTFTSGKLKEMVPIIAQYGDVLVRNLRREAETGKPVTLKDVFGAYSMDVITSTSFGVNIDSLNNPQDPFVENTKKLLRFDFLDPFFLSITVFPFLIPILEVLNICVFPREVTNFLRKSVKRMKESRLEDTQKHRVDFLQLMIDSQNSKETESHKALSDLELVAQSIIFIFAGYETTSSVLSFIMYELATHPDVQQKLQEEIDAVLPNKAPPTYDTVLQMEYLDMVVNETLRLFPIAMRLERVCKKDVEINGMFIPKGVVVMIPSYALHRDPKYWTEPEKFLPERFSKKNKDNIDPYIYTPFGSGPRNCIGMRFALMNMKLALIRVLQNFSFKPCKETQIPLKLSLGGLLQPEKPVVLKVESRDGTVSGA
# [6] = target: T3, CYP1A2 (Homo sapiens, UniProt P05177); details: 50 µM menadione; parathion 200 µM
# T3 sequence (P05177 2-516 limits assumed): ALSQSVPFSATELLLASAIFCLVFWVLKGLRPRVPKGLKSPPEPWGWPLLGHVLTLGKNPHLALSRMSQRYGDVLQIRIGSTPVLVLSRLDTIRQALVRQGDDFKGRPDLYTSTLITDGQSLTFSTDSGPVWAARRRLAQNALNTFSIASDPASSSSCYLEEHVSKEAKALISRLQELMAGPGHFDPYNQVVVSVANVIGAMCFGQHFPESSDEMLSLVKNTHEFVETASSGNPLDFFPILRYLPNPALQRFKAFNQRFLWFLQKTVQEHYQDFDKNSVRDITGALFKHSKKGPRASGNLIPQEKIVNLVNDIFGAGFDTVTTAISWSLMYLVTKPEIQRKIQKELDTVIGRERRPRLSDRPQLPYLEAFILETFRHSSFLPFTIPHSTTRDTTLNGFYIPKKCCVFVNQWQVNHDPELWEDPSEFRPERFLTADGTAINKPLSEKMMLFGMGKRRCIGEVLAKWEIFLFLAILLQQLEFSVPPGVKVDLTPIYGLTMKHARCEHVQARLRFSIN
# [7] = test system: female Long-Evans rats; details: menadione 40 mg/kg ip 20 min after parathion 8 mg/kg oral
# [8] = target: CYP2D6 (Homo sapiens, UniProt P10635); experiment: recombinant CYP activity with fluorogenic substrate
# Chain of CYP2D6 (P10635 whole entry, one chain of several): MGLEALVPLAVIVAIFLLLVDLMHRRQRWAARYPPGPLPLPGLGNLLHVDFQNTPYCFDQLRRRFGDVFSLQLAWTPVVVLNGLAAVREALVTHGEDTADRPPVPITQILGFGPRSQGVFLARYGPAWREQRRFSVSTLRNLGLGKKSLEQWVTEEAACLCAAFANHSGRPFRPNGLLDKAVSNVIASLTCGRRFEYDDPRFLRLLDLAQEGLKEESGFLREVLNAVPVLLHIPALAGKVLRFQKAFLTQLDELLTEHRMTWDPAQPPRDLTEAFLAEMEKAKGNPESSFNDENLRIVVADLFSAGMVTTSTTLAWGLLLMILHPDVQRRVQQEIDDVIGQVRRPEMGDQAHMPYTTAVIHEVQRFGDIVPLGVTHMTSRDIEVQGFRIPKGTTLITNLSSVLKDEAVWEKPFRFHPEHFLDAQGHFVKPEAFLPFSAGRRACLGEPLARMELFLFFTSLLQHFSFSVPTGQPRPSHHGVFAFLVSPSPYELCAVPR
structure (smiles),measurement,setting,value
"CC1=CC(=O)c2ccccc2C1=O [menadione, 2-methylnaphthalene-1,4-dione]",IC50,[1],7.02 ± 0.53 µM
same,IC50,[2],5.76 ± 0.78 µM
same,IC50,[3],8.91 ± 0.57 µM
same,IC50,[4],5.58 ± 1.22 µM
same,paraoxon formation,[5],marked decrease
same,CYP1A2 mediated activation of parathion and AChE inhibition,[6],completely abolished
same,"parathion toxicity (startle response, tremulous jaw movement, tremors and convulsions)",[7],marked reduction
same,IC50,[8],4.6 ± 0.87 µM
